Structures can show the parent of a compound that is named as a salt.

One assay has as its target SHP2 (Homo sapiens (Human), UniProt Q06124). The assay is described as follows: Shp2 Biochemical Assay (DiFMUP conversion). To be noted: for IC50: 10 pM SHP2, activating peptide pIRS1, DiFMUP substrate, average where more than one data point. On the procedure:
SHP2 activity was monitored by measuring the conversion of the surrogate substrate 6,8-difluoromethylumbelliferyl phosphate (DiFMUP) to the fluorescent product, 6,8-difluoromethylumbelliferone (DiFMU).
SHP2 was pre-incubated with test compounds and the activating peptide pIRS1 (H2N-LN(pY)IDLDLV-(PEG)8-LST(pY)ASINFQK-amide) for 30 min, prior to addition of the 6,8-difluoromethylumbelliferyl phosphate (DiFMUP), (Thermo Fisher D6567). Final assay concentrations were 10 pM SHP2, 0.25 μM pIRS1 peptide, 50 μM DiFMUP, 25 mM Bis-Tris propane, pH 7.0, 150 mM NaCl, 0.05% (v/v) Tween-20, 0.5 mM TCEP and 5% (v/v) DMSO. Rates of reaction were then measured over 30 min by monitoring fluorescence on a BMG Pherastar reader at excitation 360 nm/emission 450 nm. IC50 values were calculated from the normalized dose-response plots using four parameter logistic curve fit.

A further assay has as its system pERK. The assay is described as follows: Cellular pERK Inhibition Assay (phospho-p44/42 MAPK sandwich ELISA). The format is cell-based. Conditions: Homo sapiens; HCC827 cells, 0.5 hours compound treatment; average where more than one data point. As for the experimental part: Cellular pERK Inhibition Assay
HCC827 cells (ATCC, Manassas, USA) were seeded into 96-well plates at a density of 1×10^5 cells/well in RPMI medium supplemented with 10% FBS and incubated 24 h. Compounds were diluted first in DMSO and then into serum-free medium, before being added to cells in triplicate to give a final concentration of 0.1% DMSO. Plates were incubated at 37° C. for 0.5 hours in a humidified atmosphere of 5% CO2 in air.
Following compound treatment, medium was removed and cells were lysed by adding 50 μL of lysis buffer (Cell Signalling Technology, Beverly, USA) to each well. Plates were then incubated at room temperature for 25 minutes with shaking. pERK levels were measured in lysates using the PathScan® phospho-p44/42 MAPK (Thr202/Tyr204) sandwich ELISA (Cell Signalling Technology, Beverly, USA) as per kit instructions. Briefly, 50 μL of cell lysate was added to 50 μL of ELISA sample diluent in a 96-well ELISA plate and incubated overnight at 4° C. Following washing, 100 μL of detection antibody was added per well and the plates incubated for 1 hour at 37° C. Plates were washed again and incubated at 37° C. for 30 minutes with 100 μl of HRP-linked secondary antibody per well. After final washing, 100 μL per well of TMB substrate was added and plates incubated at 37° C. to develop colour. Colour development was stopped by the addition of 100 μL per well of stop solution. Plates were read at 450 nm on a SpectraMax Gemini reader (Molecular Devices, Uckfield, UK).
The average signal from blank wells (no cells added) was subtracted from the signals from each sample well. Levels of pERK were then expressed as “percent of control”, using DMSO treated samples as control. Dose response curves were generated using GraphPad Prism Version 6 (GraphPad Software, La Jolla, USA) and fitted using the four parameter logistic curve fit.

SHP2, sequence (Q06124 whole entry): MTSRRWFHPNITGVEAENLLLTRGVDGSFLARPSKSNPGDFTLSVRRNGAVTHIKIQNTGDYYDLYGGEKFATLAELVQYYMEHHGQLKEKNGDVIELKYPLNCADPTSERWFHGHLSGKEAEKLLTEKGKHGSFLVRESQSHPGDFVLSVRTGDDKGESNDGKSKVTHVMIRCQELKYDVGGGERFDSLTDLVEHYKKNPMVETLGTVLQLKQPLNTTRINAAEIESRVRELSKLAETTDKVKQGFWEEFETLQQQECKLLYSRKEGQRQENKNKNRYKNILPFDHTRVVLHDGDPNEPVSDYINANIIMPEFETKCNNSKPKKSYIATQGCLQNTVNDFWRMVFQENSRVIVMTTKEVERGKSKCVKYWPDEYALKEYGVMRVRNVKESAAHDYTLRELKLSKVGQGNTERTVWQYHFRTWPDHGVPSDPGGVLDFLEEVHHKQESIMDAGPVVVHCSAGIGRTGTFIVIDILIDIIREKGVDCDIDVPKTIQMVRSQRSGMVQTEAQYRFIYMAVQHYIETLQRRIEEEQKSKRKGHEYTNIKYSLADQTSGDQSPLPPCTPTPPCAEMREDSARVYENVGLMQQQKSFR

Take `Cc1nc2c(-c3ccc4nn(C)c(Cl)c4c3Cl)n[nH]c2nc1N1CCC2(CCC[C@H]2N)CC1` [Example 15, (1R)-8-[3-(3,4-dichloro-2-methyl-2H-indazol-5-yl)-5-methyl-1H-pyrazolo[3,4-b]pyrazin-6-yl]-8-azaspiro[4.5]decan-1-amine]: the values for the IC50 at SHP2 and in the assay on pERK were 7.6 nM and 59 nM, respectively.

As for `Cc1nc2c(-c3ccc4nn(C)cc4c3Cl)n[nH]c2nc1N1CCC2(CC1)CC(F)(F)C[C@H]2N` [Example 2, (1R)-8-[3-(4-chloro-2-methyl-2H-indazol-5-yl)-5-methyl-1H-pyrazolo[3,4-b]pyrazin-6-yl]-3,3-difluoro-8-azaspiro[4.5]decan-1-amine hydrochloride], the IC50 at SHP2 came out at 17 nM; in the assay on pERK it was 81 nM.

Turning to `C[C@@H]1OCC2(CCN(c3nc4[nH]nc(-c5cccc(Cl)c5Cl)c4nc3CO)CC2)[C@@H]1N` [Example 18, {6-[(3S,4S)-4-amino-3-methyl-2-oxa-8-azaspiro[4.5]decan-8-yl]-3-(2,3-dichlorophenyl)-1H-pyrazolo[3,4-b]pyrazin-5-yl}methanol], at SHP2 (at 0.0030 μM, read-out: SHP2 % inhibition at given concentration), the inhibition at 0.003 µM worked out at 37%. This molecule registered an IC50 in the assay with pERK of 4.9 nM.

With `Cn1cc2c(Cl)c(-c3n[nH]c4nc(N5CCC6(CC5)CC(F)(F)C[C@H]6N)c(CO)nc34)ccc2n1` [Example 7, {6-[(1R)-1-amino-3,3-difluoro-8-azaspiro[4.5]decan-8-yl]-3-(4-chloro-2-methyl-2H-indazol-5-yl)-1H-pyrazolo[3,4-b]pyrazin-5-yl}methanol], the IC50 worked out at 11 nM against SHP2 and 6.3 nM with pERK.

Turning to `COc1cnc2ccc(-c3n[nH]c4nc(N5CCC6(CC5)CO[C@@H](C)[C@H]6N)c(C)nc34)c(Cl)c2n1` [Example 9, (3S,4S)-8-[3-(5-chloro-3-methoxyquinoxalin-6-yl)-5-methyl-1H-pyrazolo[3,4-b]pyrazin-6-yl]-3-methyl-2-oxa-8-azaspiro[4.5]decan-4-amine hydrochloride], the IC50 at SHP2 came out at 18 nM; in the assay on pERK, 45 nM.

As for `CCn1cc2c(Cl)c(-c3n[nH]c4nc(N5CCC6(CC5)COC[C@H]6N)c(C)nc34)ccc2n1` [Example 5, (4S)-8-[3-(4-chloro-2-ethyl-2H-indazol-5-yl)-5-methyl-1H-pyrazolo[3,4-b]pyrazin-6-yl]-2-oxa-8-azaspiro[4.5]decan-4-amine], the IC50 against SHP2 is 7.6 nM; with pERK, 46 nM.

Regarding `Cc1nc2c(-c3ccc4nn(C)cc4c3Cl)n[nH]c2nc1N1CCC2(CC1)CO[C@@H](C)[C@H]2N` [Example 6, (3S,4S)-8-[3-(4-Chloro-2-methyl-2H-indazol-5-yl)-5-methyl-1H-pyrazolo[3,4-b]pyrazin-6-yl]-3-methyl-2-oxa-8-azaspiro[4.5]decan-4-amine], the IC50 against SHP2 was 18 nM; in the assay on pERK, 12 nM.

Consider `C[C@@H]1OCC2(CCN(c3nc4[nH]nc(-c5ccc6nn(C)c(Cl)c6c5Cl)c4nc3CO)CC2)[C@@H]1N` [Example 8, {6-[(3S,4S)-4-amino-3-methyl-2-oxa-8-azaspiro[4.5]decan-8-yl]-3-(3,4-dichloro-2-methyl-2H-indazol-5-yl)-1H-pyrazolo[3,4-b]pyrazin-5-yl}methanol], for which the IC50 against SHP2 is 7.1 nM; with pERK, 3.6 nM.

For the origin of these results see patent US12458640B2, “Pyrazolo[3,4-b]pyrazine SHP2 phosphatase inhibitors” (OTSUKA PHARMACEUTICAL CO., LTD., priority 2019, dated 2025).
